# Assays:
# procollagen-1 = assay: Collagen Stimulation Assay (PICP ELISA, Takara #MK101); type: cell-based; settings: normal human adult epidermal fibroblasts treated 3 days, culture medium
# Excerpt: Collagens (types I, II, III, IV and V) are synthesized as precursor molecules called procollagens. These precursor molecules contain additional peptide sequences, usually called “propeptides”, at both the amino-terminal and the carboxy-terminal ends. During cellular expression and secretion, procollagens are assembled in the trimeric form and then cleaved at specific N- and C-terminal sites by specific endopeptidases, generating three fragments: procollagen-1 N-terminal propeptide (PINP), Type I collagen, and procollagen-1 carboxy-terminal propeptide (PICP).
# The function of the propeptides is to facilitate the winding of procollagen molecules into a triple-helical conformation within the endoplasmic reticulum. […]
# Quantitative detection of PICP in fibroblast cell extracts and culture supernatants was performed with an enzyme immunoassay kit (e.g., Takara #MK101) to assess the effects of the ingredients on the synthesis of PICP in skin. […] The assay employed the quantitative sandwich enzyme immunoassay technique whereby a monoclonal antibody specific for procollagen peptide was pre-coated onto a microplate. […] Color development was stopped and the intensity of the color at 450 nm was measured using a microplate reader. […]
# MMP-9 = target: T1, MMP-9 (Homo sapiens, UniProt P14780); assay: Matrix Metalloproteinase 9 Enzyme Activity (MMP-9) Assay (BioMol AK-410); type: biochemical; settings: thiopeptide chromogenic substrate, absorbance 412 nm
# T1 construct: purchased BioMol International AK-410
# T1 sequence (P14780 107-444 limits assumed): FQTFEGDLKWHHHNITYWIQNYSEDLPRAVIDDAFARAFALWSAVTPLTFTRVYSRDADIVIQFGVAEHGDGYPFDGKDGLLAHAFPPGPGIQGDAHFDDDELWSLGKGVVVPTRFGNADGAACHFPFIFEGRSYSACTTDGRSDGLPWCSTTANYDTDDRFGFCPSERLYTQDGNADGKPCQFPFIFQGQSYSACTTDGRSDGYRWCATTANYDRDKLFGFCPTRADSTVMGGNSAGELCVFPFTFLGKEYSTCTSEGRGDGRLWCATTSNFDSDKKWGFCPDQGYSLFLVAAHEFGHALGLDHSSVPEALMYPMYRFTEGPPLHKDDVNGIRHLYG
# Excerpt: (§1) MMPs are extracellular proteases that play a role in many normal and disease states by virtue of their broad substrate specificity. MMP-3 substrates include collagens, fibronectins, and laminin; while MMP-9 substrates include collagen VII, fibronectins and laminin. Colorimetric Drug Discovery kits from BioMol International for MMP-3 (AK-400) and MMP-9 (AK-410) were used to measure protease activity of MMPs using a thiopeptide as a chromogenic substrate (Ac-PLG-[2-mercapto-4-methyl-pentanoyl]-LG-OC2H5)5,6. The MMP cleavage site peptide bond is replaced by a thioester bond in the thiopeptide. Hydrolysis of this bond by an MMP produces a sulfhydryl group, which reacts with DTNB [5,5′-dithiobis(2-nitrobenzoic acid), Ellman's reagent] to form 2-nitro-5-thiobenzoic acid, which can be detected by its absorbance at 412 nm (ε=13,600 M−1 cm−1 at pH 6.0 and above 7). It was determined that Rosmarinus officinalis leaf extract inhibited MMP-3 by 40%, Morus alba fruit extract inhibited by 29%, and tetrahexyldecyl ascorbate inhibited by 38%. It was determined that Rosmarinus officinalis leaf extract inhibited MMP-9 by 61%, Morus alba fruit extract inhibited by 84%, tetrahexyldecyl ascorbate inhibited by 11%, and Acmella oleracea extract inhibited by 80%.
# IL-6 = assay: Inhibition of IL-6
# MMP-3 = target: T2, MMP-3 (Homo sapiens, UniProt P08254); assay: Matrix Metalloproteinase 3 Enzyme Activity (MMP-3) Assay (BioMol AK-400); type: biochemical; settings: thiopeptide chromogenic substrate, absorbance 412 nm
# T2 construct: purchased BioMol International AK-400
# T2 sequence (P08254 100-272 limits assumed): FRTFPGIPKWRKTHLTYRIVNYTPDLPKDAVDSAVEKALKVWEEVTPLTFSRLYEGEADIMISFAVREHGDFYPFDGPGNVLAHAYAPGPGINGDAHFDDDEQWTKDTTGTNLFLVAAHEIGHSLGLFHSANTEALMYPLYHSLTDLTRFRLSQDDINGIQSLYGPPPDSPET
# Excerpt: as §1
# TNF-α = assay: Tumor Necrosis Factor Alpha (TNF-α) Assay (ELISA, PMA-treated keratinocytes); type: cell-based; settings: normal human adult keratinocytes, PMA 10 ng/ml, 6 hours
# Excerpt: Tumor Necrosis Factor Alpha (TNF-α) Assay: Rosmarinus officinalis leaf extract and saccharide isomerate inhibit TNF-α activity. The prototype ligand of the TNF superfamily, TNF-α, is a pleiotropic cytokine that plays a central role in inflammation. Increase in its expression is associated with an up regulation in pro-inflammatory activity. The bioassay used analyzed the effect of Rosmarinus officinalis leaf extract and saccharide isomerate on the production of TNF-α by human epidermal keratinocytes. The endpoint of this assay was a spectrophotometric measurement that reflects the presence of TNF-α and cellular viability. The assay employed the quantitative sandwich enzyme immunoassay technique whereby a monoclonal antibody specific for TNF-α had been pre-coated onto a microplate.
# Standards and samples were pipetted into wells of the microplate and any TNF-α present was bound by the immobilized antibody. After washing away any unbound substances, an enzyme-linked polyclonal antibody specific for TNF-α was added to the wells. Following a wash to remove any unbound antibody-enzyme reagent, a substrate solution was added to the wells and color developed in proportion to the amount of TNF-α bound in the initial step using a microplate reader for detection at 450 nm. The color development can be stopped and the intensity of the color was measured. […]
"Inhibit MMP-9, Change (%) (MMP-9)","Inhibit MMP-3, Change (%) (MMP-3)",Compound,"Increase Collagen Expression (procollagen-1), Change (%) (procollagen-1)","Inhibit IL-6, Change (%) (IL-6)","Inhibit TNF-α, Change (%) (TNF-α)"
11,38,CCCCCCCCC(CCCCCC)C(=O)OC[C@H](OC(=O)C(CCCCCC)CCCCCCCC)[C@H]1OC(=O)C(OC(=O)C(CCCCCC)CCCCCCCC)=C1OC(=O)C(CCCCCC)CCCCCCCC (some centres unmarked) [Tetrahexyldecyl ascorbate],50,38,–
–,–,Saccharide isomerate,–,–,88
